{"source": "patent US11697646B2", "about": "“Triazole N-linked carbamoyl cyclohexyl acids as LPA antagonists” (BRISTOL-MYERS SQUIBB COMPANY, priority 2017, dated 2023)", "data": [{"molecular_target": "T1, human LPA1 (Homo sapiens, UniProt Q92633)", "T1 construct": "expressed in transfected cells; host or cells: Chinese hamster ovary (CHO) cells", "T1 sequence (Q92633 whole entry)": "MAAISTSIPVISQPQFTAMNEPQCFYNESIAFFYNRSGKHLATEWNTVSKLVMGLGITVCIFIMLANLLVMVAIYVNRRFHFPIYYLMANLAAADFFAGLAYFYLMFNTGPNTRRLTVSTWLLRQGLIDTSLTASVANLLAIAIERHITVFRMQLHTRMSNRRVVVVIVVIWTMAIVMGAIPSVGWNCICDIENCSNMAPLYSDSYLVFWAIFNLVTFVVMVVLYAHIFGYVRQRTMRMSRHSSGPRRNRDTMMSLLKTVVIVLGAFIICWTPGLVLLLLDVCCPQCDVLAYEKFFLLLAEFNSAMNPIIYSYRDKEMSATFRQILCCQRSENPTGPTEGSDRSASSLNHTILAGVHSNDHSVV", "assay": "LPA1 functional antagonist assay (calcium flux)", "assay_type": "cell-based", "conditions": "CHO cells overexpressing human LPA1; calcium flux induced by 10 nM LPA; read-out: hLPA1 IC50", "protocol": "The effectiveness of compounds of the present invention as LPA1 inhibitors can be determined in an LPA1 functional antagonist assay as follows:\nThe cells were then equilibrated to room temperature for 30 minutes before the assay. […] IC50 values were determined by fitting data to a 4-parameter logistic equation (GraphPad Prism, San Diego Calif.).", "units": {"IC50": "nM"}, "values": [{"smiles": "Cc1nc(-c2nnn(C)c2CNC(=O)N(C)CCC2CC2)ccc1O[C@H]1CCC[C@H](C(=O)O)C1", "note": "[Example 114, (1S,3S)-3-((6-(5-((3-(2-cyclopropyl-ethyl)-3-methylureido)methyl)-1-methyl-1H-1,2,3-triazol-4-yl)-2-methylpyridin-3-yl)oxy)cyclohexane-1-carboxylic acid]", "IC50": 112}, {"smiles": "Cc1nc(-c2nnn(C)c2CN(C)C(=O)N(C)Cc2ccccc2)ccc1O[C@H]1CCC[C@H](C(=O)O)C1", "note": "[Example 115, (1S,3S)-3-((6-(5-((3-benzyl-1,3-dimethylureido)methyl)-1-methyl-1H-1,2,3-triazol-4-yl)-2-methyl-pyridin-3-yl)oxy)cyclohexane-1-carboxylic acid]", "IC50": 166}, {"smiles": "Cc1nc(-c2nnn(C)c2CNC(=O)N(C)CCC(C)C)ccc1O[C@H]1CCC[C@H](C(=O)O)C1", "note": "[Example 116, (1S,3S)-3-((6-(5-((3-isopentyl-3-methyl-ureido)methyl)-1-methyl-1H-1,2,3-triazol-4-yl)-2-methylpyridin-3-yl)oxy)cyclohexane-1-carboxylic acid]", "IC50": 92}, {"smiles": "Cc1nc(-c2nnn(C)c2CNC(=O)NC2CC3CCC2C3)ccc1O[C@H]1CCC[C@H](C(=O)O)C1", "note": "(stereo partly drawn) [Example 117, (1S,3S)-3-((6-(5-((3-(bicyclo [2.2.1]heptan-2-yl)ureido)methyl)-1-methyl-1H-1,2,3-triazol-4-yl)-2-methylpyridin-3-yl)oxy)cyclohexane-1-carboxylic acid]", "IC50": 420}, {"smiles": "Cc1nc(-c2nnn(C)c2CNC(=O)NCCC(C)C)ccc1O[C@H]1CCC[C@H](C(=O)O)C1", "note": "[Example 122, (1S,3S)-3-((6-(5-((3-isopentyl-ureido)methyl)-1-methyl-1H-1,2,3-triazol-4-yl)-2-methylpyridin-3-yl)oxy)cyclohexane-1-carboxylic acid]", "IC50": 101}, {"smiles": "Cc1nc(-c2nnn(C)c2CNC(=O)NCC2CC(F)(F)C2)ccc1O[C@H]1CCC[C@H](C(=O)O)C1", "note": "[Example 123, (1S,3S)-3-((6-(5-((3-((3,3-difluorocyclo-butyl)methyl)ureido)methyl)-1-methyl-1H-1,2,3-triazol-4-yl)-2-methylpyridin-3-yl)oxy)cyclohexane-1-carboxylic acid]", "IC50": 929}, {"smiles": "CCCCNC(=O)NCc1c(-c2ccc(O[C@H]3CCC[C@H](C(=O)O)C3)c(C)n2)nnn1C", "note": "[Example 124, (1S,3S)-3-((6-(5-((3-butylureido)methyl)-1-methyl-1H-1,2,3-triazol-4-yl)-2-methylpyridin-3-yl)oxy)cyclohexane-1-carboxylic acid]", "IC50": 434}, {"smiles": "Cc1nc(-c2nnn(C)c2CNC(=O)NCC(C)C)ccc1O[C@H]1CCC[C@H](C(=O)O)C1", "note": "[Example 127, (1S,3S)-3-((6-(5-((3-isobutylureido)methyl)-1-methyl-1H-1,2,3-triazol-4-yl)-2-methylpyridin-3-yl)oxy)cyclohexane-1-carboxylic acid]", "IC50": 2270}, {"smiles": "Cc1nc(-c2nnn(C)c2CNC(=O)N(C)CC(C)C)ccc1O[C@H]1CCC[C@H](C(=O)O)C1", "note": "[Example 128, (1S,3S)-3-((6-(5-((3-isobutyl-3-methylureido)methyl)-1-methyl-1H-1,2,3-triazol-4-yl)-2-methylpyridin-3-yl)oxy)cyclohexane-1-carboxylic acid]", "IC50": 273}, {"smiles": "Cc1nc(-c2nnn(C)c2CNC(=O)N[C@H](C)c2ccccc2)ccc1O[C@H]1CCC[C@H](C(=O)O)C1", "note": "[Example 130, (1S,3S)-3-((2-methyl-6-(1-methyl-5-((3-((R)-1-phenylethyl)ureido)methyl)-1H-1,2,3-triazol-4-yl)pyridin-3-yl)oxy)cyclohexane-1-carboxylic acid]", "IC50": 275}, {"smiles": "Cc1nc(-c2nnn(C)c2CNC(=O)N(C)[C@H](C)c2ccccc2)ccc1O[C@H]1CCC[C@H](C(=O)O)C1", "note": "[Example 131, (1S,3S)-3-((2-methyl-6-(1-methyl-5-((3-methyl-3-((R)-1-phenylethyl)ureido)methyl)-1H-1,2,3-triazol-4-yl)pyridin-3-yl)oxy)cyclohexane-1-carboxylic acid]", "IC50": 217}, {"smiles": "Cc1nc(-c2nnn(C)c2CNC(=O)N(C)[C@@H](C)c2ccccc2)ccc1O[C@H]1CCC[C@H](C(=O)O)C1", "note": "[Example 132, (1S,3S)-3-((2-methyl-6-(1-methyl-5-((3-methyl-3-((S)-1-phenylethyl)ureido)methyl)-1H-1,2,3-triazol-4-yl)pyridin-3-yl)oxy)cyclohexane-1-carboxylic acid]", "IC50": 276}, {"smiles": "Cc1nc(-c2nnn(C)c2CNC(=O)N(C)C(C)(C)C)ccc1O[C@H]1CCC[C@H](C(=O)O)C1", "note": "[Example 133, (1S,3S)-3-((6-(5-((3-(tert-butyl)-3-methylureido)methyl)-1-methyl-1H-1,2,3-triazol-4-yl)-2-methylpyridin-3-yl)oxy)cyclohexane-1-carboxylic acid]", "IC50": 1090}, {"smiles": "Cc1nc(-c2nnn(C)c2CNC(=O)N(C)C(C)C)ccc1O[C@H]1CCC[C@H](C(=O)O)C1", "note": "[Example 134, (1S,3S)-3-((6-(5-((3-isopropyl-3-methylureido)methyl)-1-methyl-1H-1,2,3-triazol-4-yl)-2-methylpyridin-3-yl)oxy)cyclohexane-1-carboxylic acid]", "IC50": 519}, {"smiles": "Cc1nc(-c2nnn(C)c2NC(=O)NCc2ccccc2)ccc1O[C@H]1CCC[C@H](C(=O)O)C1", "note": "[Example 135, (1S,3S)-3-((6-(5-(3-benzylureido)-1-methyl-1H-1,2,3-triazol-4-yl)-2-methylpyridin-3-yl)oxy)cyclohexane-1-carboxylic acid]", "IC50": 329}, {"smiles": "Cc1nc(-c2nnn(C)c2NC(=O)N[C@H](C)c2ccccc2)ccc1O[C@H]1CCC[C@H](C(=O)O)C1", "note": "[Example 136, (1S,3S)-3-((2-methyl-6-(1-methyl-5-(3-((R)-1-phenylethyl)ureido)-1H-1,2,3-triazol-4-yl)pyridin-3-yl)oxy) cyclohexane-1-carboxylic acid]", "IC50": 103}, {"smiles": "Cc1nc(-c2nnn(C)c2CNS(=O)(=O)N(C)CC2CCCC2)ccc1O[C@H]1CCC[C@H](C(=O)O)C1", "note": "[Example 137, (1S,3S)-3-((6-(5-(((N-(cyclopentylmethyl)-N-methylsulfamoyl)amino)methyl)-1-methyl-1H-1,2,3-triazol-4-yl)-2-methylpyridin-3-yl)oxy)cyclohexane-1-carboxylicacid]", "IC50": 167}, {"smiles": "CCCCN(C)S(=O)(=O)NCc1c(-c2ccc(O[C@H]3CCC[C@H](C(=O)O)C3)c(C)n2)nnn1C", "note": "[Example 138, (1S,3S)-3-((6-(5-(((N-butyl-N-methylsulfamoyl)amino)methyl)-1-methyl-1H-1,2,3-triazol-4-yl)-2-methylpyridin-3-yl)oxy)cyclohexane-1-carboxylic acid]", "IC50": 449}, {"smiles": "Cc1nc(-c2nnn(C)c2CNS(=O)(=O)N(C)Cc2ccccc2)ccc1O[C@H]1CCC[C@H](C(=O)O)C1", "note": "[Example 139, (1S,3S)-3-((6-(5-(((N-benzyl-N-methylsulfamoyl)amino)methyl)-1-methyl-1H-1,2,3-triazol-4-yl)-2-methylpyridin-3-yl)oxy)cyclohexane-1-carboxylic acid]", "IC50": 313}, {"smiles": "CCCC(C)OC(=O)Nc1c(-c2ccc(O[C@H]3CCC[C@H](C(=O)O)C3)c(C)n2)nnn1C", "note": "(stereo partly drawn) [Example 140, (1S,3S)-3-((2-methyl-6-(1-methyl-5-(((pentan-2-yloxy)carbonyl)amino)-1H-1,2,3-triazol-4-yl)pyridin-3-yl)oxy)cyclohexane-1-carboxylic acid]", "IC50": 29}, {"smiles": "Cc1nc(-c2nnn(C)c2NC(=O)OC2CCCCC2)ccc1O[C@H]1CCC[C@H](C(=O)O)C1", "note": "[Example 141, (1S,3S)-3-((6-(5-(((cyclohexyloxy)carbonyl)amino)-1-methyl-1H-1,2,3-triazol-4-yl)-2-methylpyridin-3-yl)oxy)cyclohexane-1-carboxylic acid]", "IC50": 78}, {"smiles": "CCC(CC)OC(=O)Nc1c(-c2ccc(O[C@H]3CCC[C@H](C(=O)O)C3)c(C)n2)nnn1C", "note": "[Example 142, (1S,3S)-3-((2-methyl-6-(1-methyl-5-(((pentan-3-yloxy)carbonyl)amino)-1H-1,2,3-triazol-4-yl)pyridin-3-yl)oxy)cyclohexane-1-carboxylic acid]", "IC50": 30}, {"smiles": "Cc1nc(-c2nnn(C)c2NC(=O)OCC(C)F)ccc1O[C@H]1CCC[C@H](C(=O)O)C1", "note": "(stereo partly drawn) [Example 143, (1S,3S)-3-((6-(5-(((2-fluoropropoxy)carbonyl)amino)-1-methyl-1H-1,2,3-triazol-4-yl)-2-methylpyridin-3-yl)oxy)cyclohexane-1-carboxylic acid]", "IC50": 478}, {"smiles": "Cc1nc(-c2nnn(C)c2NC(=O)OCCCF)ccc1O[C@H]1CCC[C@H](C(=O)O)C1", "note": "[Example 144, (1S,3S)-3-((6-(5-(((3-fluoropropoxy)carbonyl)amino)-1-methyl-1H-1,2,3-triazol-4-yl)-2-methylpyridin-3-yl)oxy)cyclohexane-1-carboxylic acid]", "IC50": 254}, {"smiles": "Cc1nc(-c2nnn(C)c2NC(=O)OCCC(F)(F)F)ccc1O[C@H]1CCC[C@H](C(=O)O)C1", "note": "[Example 145, (1S,3S)-3-((2-methyl-6-(1-methyl-5-(((3,3,3-trifluoropropoxy)carbonyl)amino)-1H-1,2,3-triazol-4-yl)pyridin-3-yl)oxy)cyclohexane-1-carboxylic acid]", "IC50": 43}, {"smiles": "Cc1nc(-c2nnn(C)c2NC(=O)N[C@H](C)C2CC2)ccc1O[C@H]1CCC[C@H](C(=O)O)C1", "note": "[Example 146, (1S,3S)-3-((6-(5-(3-((R)-1-cyclopropylethyl)ureido)-1-methyl-1H-1,2,3-triazol-4-yl)-2-methylpyridin-3-yl)oxy)cyclohexane-1-carboxylic acid]", "IC50": 306}, {"smiles": "CCc1nc(-c2nnn(C)c2CNC(=O)N(C)CC2CCC2)ccc1O[C@H]1CCC[C@H](C(=O)O)C1", "note": "[Example 148, (1S,3S)-3-((6-(5-((3-(cyclobutyl-methyl)-3-methylureido)methyl)-1-methyl-1H-1,2,3-triazol-4-yl)-2-ethylpyridin-3-yl)oxy)cyclohexane-1-carboxylic acid]", "IC50": 62}]}]}
